Test results published in US20160030631A1, “Injectable Biodegradable Bone Matrix for Multiple Myeloma Lesion Augmentation and Osteoporosis” (THE UNIVERSITY OF TOLEDO, priority 2013, published 2016).
Where a SMILES comes first, the peptide text is derived from it. Bridges are numbered along the chain shown (N, C = ends). The star is where a group is joined. Cbz = O=C(OCc1ccccc1)*

Assays:
[1] = system: pre-osteoclast RAW 264.7 cell culture; test: TRAP+ cell staining for osteoclast activation with WP9QY-loaded cement; type: cell-based; details: WP9QY released from MWCNT/CPC or CPC; 5 days; TNFalpha stimulated; FIG. 6
Excerpt: The MWCNT/CPC or CPC alone were loaded with WP9QY ([…], [SEQ ID NO: 1]), which is a peptide compound designed to compete ligand binding of RANK and to inhibit osteoclastogensis. The WP9QY peptide has a sequence of H-[…]OH [SEQ ID NO: 1], and was developed based on a structural analysis of the ligand binding site on TNF receptor 1 and RANK to inhibit osteoclast-activating. This cyclic peptide mimics the most critical tumor necrosis factor (TNF) recognition loop on TNF receptor 1, and prevents interaction of TNF with its receptor. The peptide was added directly to the cement paste to form the bone filler composition. Briefly, 100 μL of 1 mg/mL WP9QY was added into 0.5 mL DI water when mixing with 1 g of cement powder.
The cement pellet was washed with ethanol and left in a pre-osteoclast RAW 264.7 cell culture treated to trigger cell differentiation. To measure anti-osteoclast maturation of WP9QY released from the cement, the culture was stained for TRAP+ (osteoclast-like) cells after 5 days. TRAP+ cells are a marker for active osteoclasts after stimulated by the cytokine TNFalpha. The results, shown in FIG. 6, indicate that both composites can carry and release WP9QY.

RAW 264.7 culture = test: Anti-osteoclastogenesis: cathespin K expression by real-time PCR; type: cell-based; details: MG132 released from cement; 5-day TNFalpha treatment
Method: The anti-osteoclastogenesis of MG132-loaded cement was tested after a 5-day treatment of TNFalpha in RAW 264.7 culture. In this case, expression of the marker gene cathespin K was measured by real-time PCR.

## H-Tyr-Cys-Trp-Ser-Gln-Tyr-Leu-Cys-Tyr-OH (H-YCWSQYLCY-OH; disulfide 2-8 (inferred)) [WP9QY]
[1]
  osteoclast activation (TRAP+ cells): osteoclast activation was inhibited

## CC(C)C[C@@H](C=O)NC(=O)[C@H](CC(C)C)NC(=O)[C@H](CC(C)C)NC(=O)OCc1ccccc1 [MG132] (Cbz-Leu-Leu-Leu-aldehyde)
RAW 264.7 culture
  osteoclast maturation (cathespin K expression): osteoclast maturation can be inhibited
